# Experiments:
# [1] = test system: hematopoietic stem cells (HSCs); test: Multi-lineage toxicity assay (MLTA), HSCs: concentration-response and QSP model fit; format: cell-based, human; parameters: EmaxAP,HSC / EmaxT,HSC / Emax_drug_HSC: unitless, 0–2; ≤1 anti-proliferative, >1 adds cell killing; settings: for activity at 0.0002 µM: dose 0.2 nM; for activity at 0.0002 µM / activity at 0.001 µM / activity at 0.005 µM / activity at 0.025 µM / activity at 0.1 µM / activity at 0.5 µM / activity at 2.5 µM: 6 days, normalized to vehicle control, read-out: HSCs normalized cell count; for activity at 0.001 µM: dose 1 nM; for activity at 0.005 µM: dose 5 nM; for activity at 0.025 µM: dose 25 nM; for activity at 0.1 µM: dose 100 nM; for activity at 0.5 µM: dose 500 nM; for activity at 2.5 µM: dose 2500 nM; for Emax: parameter from QSP model fitting, read-out: Emax_drug_HSC
# In short: (§1)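 Six-day flow cytometry counts, bead-normalized and expressed relative to the mean of six vehicle wells, underlie each value. Cells were primary human bone marrow CD34+ cells cultured in SFEM II with cytokines promoting multi-lineage differentiation and self-renewal.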
# [2] = test system: multi-potent progenitors (MPPs); test: MLTA, MPPs: concentration-response and QSP model fit; format: cell-based, human; settings: Homo sapiens, 144 h; for activity at 0.0002 µM: dose 0.2 nM; for activity at 0.0002 µM / activity at 0.001 µM / activity at 0.005 µM / activity at 0.025 µM / activity at 0.1 µM / activity at 0.5 µM / activity at 2.5 µM: 6 days, normalized to vehicle control, read-out: MPPs normalized cell count; for activity at 0.001 µM: dose 1 nM; for activity at 0.005 µM: dose 5 nM; for activity at 0.025 µM: dose 25 nM; for activity at 0.1 µM: dose 100 nM; for activity at 0.5 µM: dose 500 nM; for activity at 2.5 µM: dose 2500 nM; for Emax: parameter from QSP model fitting, read-out: Emax_drug_MPP
# In short: as §1
# [3] = test system: granulocyte progenitor (Gran-lin prog); test: MLTA, GranP: concentration-response and QSP model fit; format: cell-based, human; settings: Homo sapiens, 144 h; for activity at 0.0002 µM: dose 0.2 nM; for activity at 0.0002 µM / activity at 0.001 µM / activity at 0.005 µM / activity at 0.025 µM / activity at 0.1 µM / activity at 0.5 µM / activity at 2.5 µM: 6 days, normalized to vehicle control, read-out: GranPs normalized cell count; for activity at 0.001 µM: dose 1 nM; for activity at 0.005 µM: dose 5 nM; for activity at 0.025 µM: dose 25 nM; for activity at 0.1 µM: dose 100 nM; for activity at 0.5 µM: dose 500 nM; for activity at 2.5 µM: dose 2500 nM; for Emax: parameter from QSP model fitting, read-out: Emax_drug_GranP
# In short: (§2)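 Freeze-thawed primary human bone marrow CD34+ cells were grown in SFEM II with a multi-lineage cytokine cocktail, drug added day 0, six days at 37°C. Lineage counts came from 17-parameter flow with TruCount beads, vehicle-normalized per donor, then fitted by an Emax-based QSP model.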
# [4] = test system: neutrophils (neutrophil-lin); test: MLTA, Neut: concentration-response and QSP model fit; format: cell-based, human; settings: Homo sapiens, Neutrophil, 144 h; for activity at 0.0002 µM: dose 0.2 nM; for activity at 0.0002 µM / activity at 0.001 µM / activity at 0.005 µM / activity at 0.025 µM / activity at 0.1 µM / activity at 0.5 µM / activity at 2.5 µM: 6 days, normalized to vehicle control, read-out: Neut normalized cell count; for activity at 0.001 µM: dose 1 nM; for activity at 0.005 µM: dose 5 nM; for activity at 0.025 µM: dose 25 nM; for activity at 0.1 µM: dose 100 nM; for activity at 0.5 µM: dose 500 nM; for activity at 2.5 µM: dose 2500 nM; for Emax: parameter from QSP model fitting, read-out: Emax_drug_Neut
# In short: as §1
# [5] = test system: early erythroid cells (Eryth I); test: MLTA, ErythI: concentration-response and QSP model fit; format: cell-based, human; settings: for activity at 0.0002 µM: dose 0.2 nM; for activity at 0.0002 µM / activity at 0.001 µM / activity at 0.005 µM / activity at 0.025 µM / activity at 0.1 µM / activity at 0.5 µM / activity at 2.5 µM: 6 days, normalized to vehicle control, read-out: ErythI normalized cell count; for activity at 0.001 µM: dose 1 nM; for activity at 0.005 µM: dose 5 nM; for activity at 0.025 µM: dose 25 nM; for activity at 0.1 µM: dose 100 nM; for activity at 0.5 µM: dose 500 nM; for activity at 2.5 µM: dose 2500 nM; for Emax: parameter from QSP model fitting, read-out: Emax_drug_ErythroidI
# In short: as §2
# [6] = test system: late erythroid cells (Eryth II); test: MLTA, ErythII: concentration-response and QSP model fit; format: cell-based, human; settings: Homo sapiens, 144 h; for activity at 0.0002 µM: dose 0.2 nM; for activity at 0.0002 µM / activity at 0.001 µM / activity at 0.005 µM / activity at 0.025 µM / activity at 0.1 µM / activity at 0.5 µM / activity at 2.5 µM: 6 days, normalized to vehicle control, read-out: ErythII normalized cell count; for activity at 0.001 µM: dose 1 nM; for activity at 0.005 µM: dose 5 nM; for activity at 0.025 µM: dose 25 nM; for activity at 0.1 µM: dose 100 nM; for activity at 0.5 µM: dose 500 nM; for activity at 2.5 µM: dose 2500 nM; for Emax: parameter from QSP model fitting, read-out: Emax_drug_ErythroidII
# In short: as §1
# MK cells (MK-lin) = test: MLTA, MK: concentration-response and QSP model fit; format: cell-based, human; settings: Homo sapiens, 144 h; for activity at 0.0002 µM: dose 0.2 nM; for activity at 0.0002 µM / activity at 0.001 µM / activity at 0.005 µM / activity at 0.025 µM / activity at 0.1 µM / activity at 0.5 µM / activity at 2.5 µM: 6 days, normalized to vehicle control, read-out: MK normalized cell count; for activity at 0.001 µM: dose 1 nM; for activity at 0.005 µM: dose 5 nM; for activity at 0.025 µM: dose 25 nM; for activity at 0.1 µM: dose 100 nM; for activity at 0.5 µM: dose 500 nM; for activity at 2.5 µM: dose 2500 nM; for Emax: parameter from QSP model fitting, read-out: Emax_drug_MK
# In short: as §1
# [7] = test system: human bone marrow-derived CD34+ cells differentiated into multiple hematopoietic lineages; test: MLTA, overall effects across hematopoietic lineages; format: cell-based; settings: QSP model fit; EmaxT > 1.0 = cell-killing
# In short: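 Thawed primary human bone marrow CD34+ cells grown in SFEM II with a multi-lineage cytokine cocktail, drug added day 0, 6 days at 37°C, 5% CO2. Subsets counted by 17-parameter flow cytometry with TruCount beads, normalized to six vehicle wells per donor (2–7 donors); Emax model fitted per cell type.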
# [8] = Homo sapiens, Hematopoietic stem cell, 144 h
# [9] = cell-killing component, max(0, EmaxT-1)
# [10] = QSP model fit of 6-day MLTA data
smiles,measurement,setting,value
CC(=O)O[C@H]1C(=O)[C@@]2(C)[C@H]([C@H](OC(=O)c3ccccc3)[C@]3(O)C[C@H](OC(=O)[C@H](O)[C@@H](NC(=O)c4ccccc4)c4ccccc4)C(C)=C1C3(C)C)[C@]1(OC(C)=O)CO[C@@H]1C[C@@H]2O [paclitaxel],EC50,"[1]; Homo sapiens, Hematopoietic stem cell, 144 h, QSP model fit of 6-day MLTA data",62.3 nM
same,activity at 0.0002 µM,[1]; [8],109%
same,activity at 0.001 µM,[1]; [8],87.5%
same,activity at 0.005 µM,[1]; [8],118%
same,activity at 0.025 µM,[1]; [8],28.1%
same,activity at 0.1 µM,[1]; [8],4.8%
same,activity at 0.5 µM,[1]; [8],1.08%
same,activity at 2.5 µM,[1]; [8],1.34%
same,Emax,[1]; [8],119%
same,"EmaxCK,HSC",[1]; [9],0.188 day⁻¹
same,activity at 0.0002 µM,[2],78.7%
same,activity at 0.001 µM,[2],90%
same,activity at 0.005 µM,[2],71.3%
same,activity at 0.025 µM,[2],28%
same,activity at 0.1 µM,[2],2.32%
same,activity at 0.5 µM,[2],0.649%
same,activity at 2.5 µM,[2],0.406%
same,Emax,[2],0.18%
same,activity at 0.0002 µM,[3],114%
same,activity at 0.001 µM,[3],112%
same,activity at 0.005 µM,[3],106%
same,activity at 0.025 µM,[3],0.213%
same,activity at 0.1 µM,[3],0.0154%
same,activity at 0.5 µM,[3],0.032%
same,activity at 2.5 µM,[3],0.0153%
same,Emax,[3],0.04%
same,EC50,[4]; [10],25.1 nM
same,activity at 0.0002 µM,[4],88.3%
same,activity at 0.001 µM,[4],80.1%
same,activity at 0.005 µM,[4],52.3%
same,activity at 0.025 µM,[4],0.045%
same,activity at 0.1 µM,[4],0.0394%
same,activity at 0.5 µM,[4],0%
same,activity at 2.5 µM,[4],0%
same,Emax,[4],21.4%
same,EC50,"[5]; Homo sapiens, 144 h, QSP model fit of 6-day MLTA data, read-out: EC50ErythI",15.4 nM
same,activity at 0.0002 µM,"[5]; Homo sapiens, 144 h",124%
same,activity at 0.001 µM,"[5]; Homo sapiens, 144 h",112%
same,activity at 0.005 µM,"[5]; Homo sapiens, 144 h",83.5%
same,activity at 0.025 µM,"[5]; Homo sapiens, 144 h",2.87%
same,activity at 0.1 µM,"[5]; Homo sapiens, 144 h",0.445%
same,activity at 0.5 µM,"[5]; Homo sapiens, 144 h",0.574%
same,activity at 2.5 µM,"[5]; Homo sapiens, 144 h",0.379%
same,Emax,"[5]; Homo sapiens, 144 h",147%
same,"EmaxCK,ErythI",[5]; [9],0.466 day⁻¹
same,EC50,"[6]; QSP model fit of 6-day MLTA data, read-out: EC50ErythII",20.2 nM
same,activity at 0.0002 µM,[6],90.9%
same,activity at 0.001 µM,[6],107%
same,activity at 0.005 µM,[6],56.5%
same,activity at 0.025 µM,[6],0.128%
same,activity at 0.1 µM,[6],0.0395%
same,activity at 0.5 µM,[6],0.0174%
same,activity at 2.5 µM,[6],0.00196%
same,Emax,[6],7.1%
same,EC50,MK cells (MK-lin); [10],51.7 nM
same,activity at 0.0002 µM,MK cells (MK-lin),108%
same,activity at 0.001 µM,MK cells (MK-lin),110%
same,activity at 0.005 µM,MK cells (MK-lin),111%
same,activity at 0.025 µM,MK cells (MK-lin),9.64%
same,activity at 0.1 µM,MK cells (MK-lin),0.962%
same,activity at 0.5 µM,MK cells (MK-lin),0.754%
same,activity at 2.5 µM,MK cells (MK-lin),0.792%
same,Emax,MK cells (MK-lin),25.9%
same,EmaxT effects across cell types (overall statement),[7],> 1.0
CCc1cnn2c(NCc3ccc[n+]([O-])c3)cc(N3CCCC[C@H]3CCO)nc12 [dinaciclib],activity at 0.0002 µM,[1]; [8],89.5%
same,activity at 0.001 µM,[1]; [8],106%
same,activity at 0.005 µM,[1]; [8],115%
same,activity at 0.025 µM,[1]; [8],61.2%
same,activity at 0.1 µM,[1]; [8],1.89%
same,activity at 0.5 µM,[1]; [8],5.17%
same,activity at 2.5 µM,[1]; [8],1.3%
same,Emax,[1]; [8],103%
same,"EmaxAP,HSC","[1]; anti-proliferation component, min(1, EmaxT)",1.000
same,activity at 0.0002 µM,[2],94.1%
same,activity at 0.001 µM,[2],104%
same,activity at 0.005 µM,[2],96.7%
same,activity at 0.025 µM,[2],53.4%
same,activity at 0.1 µM,[2],2.71%
same,activity at 0.5 µM,[2],2.67%
same,activity at 2.5 µM,[2],0.896%
same,Emax,[2],69.4%
same,activity at 0.0002 µM,[3],97.3%
same,activity at 0.001 µM,[3],99.7%
same,activity at 0.005 µM,[3],93.8%
same,activity at 0.025 µM,[3],31.7%
same,activity at 0.1 µM,[3],0.0459%
same,activity at 0.5 µM,[3],0.033%
same,activity at 2.5 µM,[3],0.0254%
same,Emax,[3],0.0135%
same,activity at 0.0002 µM,[4],83.8%
same,activity at 0.001 µM,[4],83.1%
same,activity at 0.005 µM,[4],24.9%
same,activity at 0.025 µM,[4],0.684%
same,activity at 0.1 µM,[4],0.0259%
same,activity at 0.5 µM,[4],0.0166%
same,activity at 2.5 µM,[4],0.0149%
same,Emax,[4],28.1%
same,activity at 0.0002 µM,"[5]; Homo sapiens, 144 h",112%
same,activity at 0.001 µM,"[5]; Homo sapiens, 144 h",104%
same,activity at 0.005 µM,"[5]; Homo sapiens, 144 h",73.3%
same,activity at 0.025 µM,"[5]; Homo sapiens, 144 h",23.9%
same,activity at 0.1 µM,"[5]; Homo sapiens, 144 h",0.828%
same,activity at 0.5 µM,"[5]; Homo sapiens, 144 h",0.888%
same,activity at 2.5 µM,"[5]; Homo sapiens, 144 h",0.845%
same,Emax,"[5]; Homo sapiens, 144 h",112%
same,activity at 0.0002 µM,[6],90%
same,activity at 0.001 µM,[6],108%
same,activity at 0.005 µM,[6],98.7%
same,activity at 0.025 µM,[6],23.2%
same,activity at 0.1 µM,[6],0.0437%
same,activity at 0.5 µM,[6],0.0109%
same,activity at 2.5 µM,[6],0.0201%
same,Emax,[6],7.1%
same,activity at 0.0002 µM,MK cells (MK-lin),90.3%
same,activity at 0.001 µM,MK cells (MK-lin),111%
same,activity at 0.005 µM,MK cells (MK-lin),71.8%
same,activity at 0.025 µM,MK cells (MK-lin),11.8%
same,activity at 0.1 µM,MK cells (MK-lin),0.294%
same,activity at 0.5 µM,MK cells (MK-lin),0.526%
same,activity at 2.5 µM,MK cells (MK-lin),0.425%
same,Emax,MK cells (MK-lin),33.1%
same,EmaxT effects across cell types (overall statement),[7],> 1.0
